Assay: blood pool retention time in rodents, against […]
Assay type: in vivo
Description: Retention time in the chart below is reported as the blood pool half life, T 1/2 (minutes) for half of the composition to be depleted from the blood pool.

CNC[C@H](O)[C@@H](O)[C@H](O)[C@H](O)CO.CNC[C@H](O)[C@@H](O)[C@H](O)[C@H](O)CO.O=C([O-])CN(CCN(CC(=O)[O-])CC(=O)O)CCN(CC(=O)[O-])CC(=O)O.[Gd+3] [Magnevist]
Blood Pool T1/2 (blood pool half life, for half of the composition to be depleted from the blood pool): 12 min

— US5730968A, “Segmented chelating polymers as imaging and therapeutic agents” (Sterling Winthrop Inc., priority 1994, dated 1998)
